In paper PMC3031881, “Amyloid precursor protein selective gamma-secretase inhibitors for treatment of Alzheimer's disease” (Alzheimer's Research & Therapy, 2010):
Marks after values point to notes of the source that are not given here. Values belong to the compound of their own block, whether it stands above or below them.

Key:
[1] = system: Aβ production in SNC cells (CHO APPSw); assay: SNC dual cell assay, secreted Aβ1-x ELISA; settings: Cricetulus griseus; for IC50: read-out: IC50 for inhibition of Aβ production in the SNC assay; for EC50: read-out: SNC Aβ EC50
[2] = system: Notch signaling in SNC cells (rat NotchΔE, CBF-Luciferase); assay: SNC dual cell assay, Notch signaling luciferase reporter; settings: for APP selectivity (cellular, SNC assay): text of Discussion; for EC50: Rattus norvegicus, read-out: SNC Notch Signaling EC50
[3] = target: T1, gamma-secretase complex (from CHO S1 cells) (Homo sapiens, UniProt P49768); assay: Competitive displacement of biotinylated active site isostere (PS1/Nicastrin Western blot); format: binding
T1 construct: expressed in transfected cells; host or cells: CHO S1 cells

brain Aβ in PDAPP mice = assay: Acute reduction of brain Aβ in PDAPP mice; format: in vivo, mouse; settings: for reduction of brain Aβ1-x: 3 h
Description: (§1) Water and food were available ad libitum. […] Control animals were dosed with vehicle.
Figure 4 Acute reduction of brain Aβ by ELN318463 in PDAPP (a) and FVB mice (b). The mice were dosed orally with vehicle, or ELN318463 at 30 mg/kg or 100 mg/kg and sacrificed 3 h post treatment. Brain Aβ1-x in PDAPP (a), or Aβx-40 in FVB (b) was quantified by ELISA following extraction in guanidine buffer as described in methods. ** denotes P < 0.01, *** denotes P < 0.001 by Mann-Whitney in A, and two-tailed Students t-test in (b). TEXT PRINTED IN THE PICTURE: (A) no label printed: Aβ reduction: 37% (30[mpk]); Aβ reduction: 48% (100[mpk]) | (B) no label printed: Aβ reduction: 18% (30[mpk]); Aβ reduction: 18% (100[mpk])

brain Aβx-40 in FVB mice [4] = assay: Acute reduction of brain Aβx-40 in wild-type FVB mice; format: in vivo, mouse
Description: as §1
Statistical significance was determined by ANOVA.

[5] = Oral bioavailability in rat; settings: in vivo, read-out: oral bioavailability F
[6] = Compound levels in plasma and brain by LC-MS-MS; settings: for concentration at 3 h: mouse
[7] = system: thymic Hes-1 mRNA (Notch signaling); assay: Thymic Hes-1 mRNA after single dose in FVB mice (TaqMan RT-PCR); format: in vivo, mouse; settings: three hours
Description: as §1

[8] = Metabolism (N-glucuronidation); settings: precluded longer-term studies in mice (or other models)
[9] = system: FVB mice (Math1 mRNA, body and organ weight, neutrophils); settings: seven days b.i.d.; LY411575 5 mg/kg/dose; ELN475516 up to 1,000 mg/kg/dose
brain Aβx-40 in FVB mice [10] = assay: Seven-day b.i.d. repeat dose study, brain Aβx-40; settings: seven days; for reduction of brain Aβ: three hours post last dose
[11] = system: duodenum and ileum of FVB mice; assay: Seven-day b.i.d. repeat dose study, small intestine histopathology (goblet cell hyperplasia); settings: for goblet cells in ileum sections / goblet cell hyperplasia: seven days b.i.d.; for goblet cells in ileum sections: H&E and PAS stained sections; for goblet cell hyperplasia: LY411575 5 mg/kg duodenum and ileum, ELN475516 any dose, duodenum
PDAPP mouse = system: PDAPP mouse; parameters: method as in earlier work; settings: three and six months, doses which affected AD pathology; cited from earlier work
brain Aβ in Tg2576 mice = system: brain Aβ in Tg2576 mice; parameters: method as in PMID 19671883; settings: cited from earlier work
[12] = system: APP metabolites in HEK293 cells stably expressing APPsw; assay: APP metabolites by Western blot in inhibitor treated cells; settings: approximately 1 X and 10 X ED50, overnight, cell extracts
[13] = single oral dose 30 mg/kg, three hours post dose
[14] = 15 mg/kg/dose b.i.d., 7 days, N = 5
[15] = 30 mg/kg/dose b.i.d., 7 days, N = 5
[16] = 100 mg/kg/dose b.i.d., 7 days, N = 5
[17] = 300 mg/kg/dose b.i.d., 7 days, N = 5
[18] = 600 mg/kg/dose b.i.d., 7 days, N = 5
[19] = 1,000 mg/kg/dose b.i.d., 7 days, N = 5
[20] = ileum, among all mice of the ELN475516 treated groups
[21] = 5 mg/kg/dose b.i.d., 7 days, goblet cell hyperplasia in affected animals

Structure (SMILES): NC(=O)[C@@H](CCC(F)(F)F)N(Cc1ccc(-c2ncon2)cc1F)S(=O)(=O)c1ccc(Cl)cc1 [BMS-708163]
IC50 [1]: 1.13 nM
APP selectivity (cellular, SNC assay) [2]: 57 X

displacement of biotinylated active site probe ([3]; in the absence of substrate): No displacement
bioavailability [5]: 30%
concentration at 3 h ([6]; PDAPP, brain, po, 30 mg/kg): 690 nM
concentration at 3 h ([6]; PDAPP, brain, po, 100 mg/kg): 1870 nM
concentration at 3 h ([6]; female, FVB/N, brain, po, 30 mg/kg): 754 nM
concentration at 3 h ([6]; female, FVB/N, brain, po, 100 mg/kg): 2700 nM
EC50 [2]: 2820 nM
Structure (SMILES): O=C1NCCCC[C@H]1N(Cc1ccc(Br)cc1)S(=O)(=O)c1ccc(Cl)cc1 [ELN318463, N-(4-Bromobenzyl)-4-chloro-N-((3R)-2-oxoazepan-3-yl)benzenesulfonamide]
reduction of Aβx-40 (brain Aβ in PDAPP mice; 30 mg/kg oral): 20%
reduction of Aβx-40 (brain Aβ in PDAPP mice; 100 mg/kg oral): 25%
reduction of brain Aβ1-x (brain Aβ in PDAPP mice; single oral dose 30 mg/kg): 37%
reduction of brain Aβ1-x (brain Aβ in PDAPP mice; single oral dose 100 mg/kg): 48%
reduction of brain Aβx-40 (brain Aβx-40 in FVB mice [4]; [13]): 18%
reduction of brain Aβx-40 (brain Aβx-40 in FVB mice [4]; single oral dose 100 mg/kg, 3 h post dose): 18%
EC50 [1]: 23.4 ± 8.6 nM
Cellular Selectivity (APP/Notch) ([2]; ratio of cellular Notch signaling and Aβ EC50): 120

Structure (SMILES): O=S(=O)(c1ccc(Cl)cc1)N1C2CCCC1c1cn[nH]c1C2 (centres unmarked) [ELN475516, 10-((4-Chlorophenyl)sulfonyl)-4,5,6,7,8,9-hexahydro-1H-4,8-epiminocycloocta(c)pyrazole]
reduction of cortical Aβ1-x (brain Aβ in PDAPP mice; single oral dose 10 mg/kg, three hours): 31%
reduction of brain Aβ1-x (brain Aβ in PDAPP mice; single oral dose 30 mg/kg): 45%
brain Aβ levels by 24 hours post dose (brain Aβx-40 in FVB mice [4]; all treatment groups (30, 100, 300 mg/kg)): returning to baseline
reduction of brain Aβ (brain Aβx-40 in FVB mice [4]; single oral dose 30 mg/kg, 10 hours post dose): 28%
reduction of brain Aβx-40 (brain Aβx-40 in FVB mice [4]; [13]): 40%
reduction of brain Aβ (brain Aβx-40 in FVB mice [4]; single oral dose 100 mg/kg, 10 hours post dose): 33%
reduction of brain Aβ (brain Aβx-40 in FVB mice [4]; single oral dose 100 mg/kg, 14 hours post dose): 14%
reduction of brain Aβ (brain Aβx-40 in FVB mice [4]; single oral dose 300 mg/kg, 10 hours post dose): 56%
reduction of brain Aβ (brain Aβx-40 in FVB mice [4]; single oral dose 300 mg/kg, 14 hours post dose): 29%
reduction of brain Aβx-40 (brain Aβx-40 in FVB mice [4]; single oral dose 300 mg/kg, three hours post dose): 71%
time of maximal reduction of brain Aβ post dose (brain Aβx-40 in FVB mice [4]; single oral dose 30, 100, 300 mg/kg): three
thymic Hes-1 mRNA ([7]; single oral dose 300 mg/kg (highest dose tested)): statistically significant reduction
metabolic liability [8]: Limiting N-glucuronidation
Math1 mRNA levels in duodenum and ileum [9]: No effects
EC50 [1]: 8.73 ± 3.96 nM
terminal plasma compound levels ([6]; acute single dose study, highest dose tested (300 mg/kg), FVB mice): 12.3 µM
concentration at 3 h ([6]; female, FVB, in vivo, 15 mg/kg): 187 nM
concentration at 3 h ([6]; female, FVB, in vivo, 1000 mg/kg/dose): 12300 nM
reduction of brain Aβ (brain Aβx-40 in FVB mice [10]; 15 mg/kg/dose b.i.d. oral): 33%
maximal effect, reduction of brain Aβ (brain Aβx-40 in FVB mice [10]; >100 mg/kg b.i.d. oral): 74%
EC50 [2]: 719 ± 225 nM
Duodenum # animals affected [11, 14]: 0
Ileum # animals affected [11, 14]: 0
Duodenum # animals affected [11, 15]: 0
Ileum # animals affected [11, 15]: 4
Ileum Mean severity score ([11]; 30 mg/kg/dose b.i.d., 7 days, affected animals): 0.5
Duodenum # animals affected [11, 16]: 0
Ileum # animals affected [11, 16]: 2
Ileum Mean severity score ([11]; 100 mg/kg/dose b.i.d., 7 days, affected animals): 1.25
Duodenum # animals affected [11, 17]: 0
Ileum # animals affected [11, 17]: 0
Duodenum # animals affected [11, 18]: 0
Ileum # animals affected [11, 18]: 2
Ileum Mean severity score ([11]; 600 mg/kg/dose b.i.d., 7 days, affected animals): 0.5
Duodenum # animals affected [11, 19]: 0
Ileum # animals affected [11, 19]: 1
Ileum Mean severity score ([11]; 1,000 mg/kg/dose b.i.d., 7 days, affected animals): 0.5
number of mice with a questionable increase in goblet cells [11, 20]: 8
number of mice with no increase in goblet cells [11, 20]: 21
goblet cells in ileum sections [11]: no apparent dose-related increase
goblet cell hyperplasia [11]: not observed

Structure (SMILES): O=S(=O)(c1ccc(C(F)(F)F)cc1)N1c2cc(F)c(F)cc2-c2[nH]ncc2[C@H]1C1CC1 [ELND006]
tolerability in chronic study (PDAPP mouse): well tolerated

Structure (SMILES): O=S(=O)(N[C@H](CO)C(C(F)(F)F)C(F)(F)F)c1ccc(Cl)s1 [GSI-953]
reduction of brain Aβx-40 (brain Aβx-40 in FVB mice [4]; [13]): 33%
dose producing a similar magnitude effect (33% brain Aβ reduction) (brain Aβ in Tg2576 mice): 5 mg/kg
IC50 [1]: 8 nM
APP selectivity (cellular, SNC assay) [2]: 45 X

Structure (SMILES): CC(C)C[C@H](NC(=O)[C@H](Cc1ccccc1)C[C@@H](O)[C@H](Cc1ccccc1)NC(=O)OC(C)(C)C)C(=O)N[C@@H](Cc1ccccc1)C(N)=O [L-685,458, tert-Butyl (2S,3R,5R)-6-((S)-1-((S)-1-amino-1-oxo-3-phenylpropan-2-ylamino)-4-methyl-1-oxopentan-2-ylamino)-5-benzyl-3-hydroxy-6-oxo-1-phenylhexan-2-ylcarbamate]
captured gamma-secretase complex competed ([3]; co-incubation with 10 μM, 50 nM biotinylated probe, preliminary experiments): > 90%
concentration for 50% displacement of biotinylated active site isostere probe, above IC50 in the gammaAPP assay ([3]; no added substrate): approximately three
EC50 [1]: 13.2 ± 4.5 nM
EC50 [2]: 184 ± 145 nM
effect on α-CTF and β-CTF of APP [12]: stabilize both α-CTF and β-CTF in a dose-dependent manner

Structure (SMILES): C[C@H](NC(=O)[C@@H](O)c1cc(F)cc(F)c1)C(=O)N[C@@H]1C(=O)N(C)c2ccccc2-c2ccccc21 [LY411575, (S)-2-((S)-2-(3,5-Difluorophenyl)-2-hydroxyacetamido)-N-((S)-5-methyl-6-oxo-6,7-dihydro-5H-dibenzo(b,d)azepin-7-yl)propanamide, reference compound]
reduction of brain Aβx-40 (brain Aβx-40 in FVB mice [4]; single oral dose 10 mg/kg, three hours post dose): 74%
reduction of thymic Hes-1 mRNA ([7]; single oral dose 10 mg/kg): 60%
Math1 mRNA levels in duodenum and ileum [9]: robust elevation
EC50 [1]: 0.116 ± 0.011 nM
reduction of brain Aβ (brain Aβx-40 in FVB mice [10]; 5 mg/kg b.i.d. oral): 83%
EC50 [2]: 1.8 ± 1.35 nM
Ileum # animals affected ([11]; 5 mg/kg/dose b.i.d., 7 days, N = 5): 5
Duodenum # animals affected ([11]; 5 mg/kg/dose b.i.d., 7 days, N = 5 (tissue lost from one animal)): 4*
Duodenum Mean severity score [11, 21]: 2
Ileum Mean severity score [11, 21]: 3
goblet cells in ileum sections [11]: moderate increase in goblet cells
goblet cell hyperplasia [11]: readily apparent
